In experiment [1] the test system is apoE−/−;LDLr−/− mouse aortae. As to the kind of experiment: Aqueous and lipophilic parameters of aortic homogenates. It is filed as in vivo, mice. The settings on record: for Aortic Ascorbate: apoE−/−;LDLr−/− mice. Here is the method:
Mouse aortas were excised as follows: after bleeding, the heart was perfused with Dulbecco's phosphate-buffered saline containing 100 μM BHT and 1 mM EDTA (maximum pressure 80 mm Hg) through the left ventricle, the right side chamber being opened to allow flow. For histological samples only, the vasculature was subsequently fixed with formal saline. The hearts and entire aortas from all treatment groups were removed and immediately cleaned of fat and connective tissue. Aortas for biochemical analyses were frozen immediately ([…]) without formalin fixation.
Cleaned aortic segments were thawed, blotted, pooled (n=7 or 8), weighed, added to 2 mL of argon-flushed phosphate-buffered saline (to give ˜40 mg wet tissue/mL) containing BHT (100 μM) and EDTA (1 mM). The tissue was minced with scissors, isoascorbate (5 μM) and α-tocotrienol (1 μM) added as internal standards for ascorbate and vitamin E (including α-TQ), respectively, and the samples transferred to a polytetrafluoroethylene-lined glass tube and homogenised at 4° C. for 5 minutes using a teflon piston rotating at 500 r.p.m. For recovery of oxidised lipids, [^3H]-Ch18:2-OH was incorporated into human LDL and added to the vessel prior to homogenisation. […] For ascorbate measurement, raw homogenate (50 μL) was added to metaphosphoric acid (5% v/v, 50 μL) and frozen on dry ice. Immediately before HPLC analysis, the aliquots were thawed and diluted with phosphate buffer (50 μL, 250 mM, pH 7.4), to adjust the pH. For the analyses of lipids, the remaining homogenate (˜1.8 mL) was divided into 4×450 μl aliquots and each extracted with chilled methanol (2 mL) and hexane (10 mL). Hexane phases were combined and evaporated to dryness and the residue resuspended in isopropanol (200 μL).
Analyses of oxidised and non-oxidised lipids were carried out by RP-HPLC as described in Example 1 except that in some instances UV234 nm rather than post-column chemiluminescence detection was used to measure C18:2-OOH and the corresponding hydroxides (together referred to as CE-O(O)H) which show similar retention times under these chromatographic conditions. α-TQ, α-TOH, α-tocotrienol, D-isosascorbate and ascorbate were determined by HPLC with electrochemical detection. For oxidation of plasma, unesterified cholesterol (which remained non-oxidised in these experiments) was employed as internal standard for all polyunsaturated, lipid-soluble components analysed. Bisphenol and diphenoquinone were analysed by RP-HPLC: flow 1.5 mL/min, 100% solvent A (MeCN/MeOH/H20 10:10:3, v/v/v) for 0-15 min monitored at 270 nm, followed by 50% solvent A and B (MeCN/MeOH 1:1, v/v) for 15-22 min at 242 nm and then 100% B for 22-28 min at 420 nm. Bisphenol and diphenoquinone eluted at 9 and 27 min, respectively. All compounds were quantified by peak area comparison with authentic standards. Where indicated, total cholesterol and triglyceride were assayed enzymatically (Boehringer, Mannheim, Germany).
Unless otherwise stated lipid and antioxidant levels are expressed as pmol/mg protein. LH, lipid containing bisallylic hydrogens. §Values are expressed as nmol/mg protein. Protein ranged from 2.4 - 3.3 mg/mL. ¶Value given represents ratio ×10^3. †Mice were ranked in order of plasma concentration of bisphenol, then corresponding aortae were pooled into groups of 7 and 8 on the basis of plasma drug-levels giving two distinct groups. Low and high bisphenol correspond to 106±40 and 212±50 μM, respectively. Control aortas were pooled randomly into two groups of 7 and 8 respectively.

In experiment [2] the test system is plasma lipoproteins of apoE−/− mice. The experiment can be described thus: Lipids and antioxidants in lipoprotein fractions (size exclusion FPLC of pooled plasma). The settings on record: 24 weeks. The class given is in vivo. The arrangement: VLDL C / VLDL C18:2 / VLDL -TOH / VLDL Total CoQ / LDL C / LDL C18:2 / LDL -TOH / LDL Total CoQ / HDL C / HDL C18:2 / HDL -TOH / HDL Total CoQ: unit not given here. The protocol:
Plasma was obtained from control and probucol mice and aliquots frozen for subsequent determination of lipids. Separate aliquots were acidified with metaphosphoric acid (5%) to stabilize vitamin C prior to freezing and storage at −80° C. The remainder was pooled appropriately and used for ex vivo oxidation initiated by the peroxyl radical generator AAPH and lipoprotein separation by FPLC with UV280nm detection, as described in J Lipid Res. 1999;40:1104-1112.
Two consecutive separations each employing 300 μL undiluted plasma were carried out. The corresponding eluents from both injections were collected, pooled according to fractions corresponding to very low-density lipoprotein (VLDL), LDL, and HDL plus mouse serum albumin (see FIG. 3) and then extracted and analysed for lipids and antioxidants.
On the technique in general: In gel filtration, larger molecules generally elute earlier.

The subject of experiment [3] is cholesterol-fed, ballooned New Zealand White rabbits. As to the kind of experiment: Atherosclerosis/restenosis and lipid oxidation in cholesterol-fed, ballooned rabbits. The class given is in vivo. The settings on record: 2% cholesterol diet with 1% probucol, 6 weeks. The protocol:
Aortic endothelial denudation was performed at week 3 by withdrawing an inflated 3F Fogarty balloon embolectomy catheter three times down the length of the aorta. Plasma was obtained from animals as described in Example 1 at the start and end of the study. At the end of the study period, individual aortas were removed and prepared for HPLC analysis as in Example 1. Lipids and antioxidants including probucol and its metabolites, bisphenol and diphenoquinone, were analyzed by RP-HPLC as described previously. Aortas designated for histology were perfusion-fixed with 4% (v/v) formaldehyde and transferred into formalin. Cross-sections (2-3 μm thick) were prepared and stained with Weigert's hematoxylin-van Gieson, and the intima to media ratio determined for three sections.

In the case of `CC(C)(C)c1cc(-c2cc(C(C)(C)C)c(O)c(C(C)(C)C)c2)cc(C(C)(C)C)c1O` [Bisphenol, bisphenol], in experiment [1] (Bisphenol [high]), the “Aortic C” value was 190 nmol/mg protein, the “Aortic C18:2” value came out at 13.3 nmol/mg protein, the “Aortic C20:4” value was 8.5 nmol/mg protein and the “Aortic CE-O(O)H” value came to 2.8 pmol/mg protein. Moreover, in experiment [1] (Bisphenol [high]), the “Aortic CE-O(O)H/LH” value was 0.002 ratio ×10^3, the “Aortic α-TOH” value turned out to be 586 pmol/mg protein and the “Aortic α-TQ” value is 3.5 pmol/mg protein. The “Aortic Ascorbate” value in experiment [1] (Bisphenol [high] (plasma 212±50 μM)) amounted to 2570 pmol/mg protein. Moreover, in experiment [1] (Bisphenol [low]), the “Aortic C” value amounted to 204 nmol/mg protein, the “Aortic C18:2” value is 21.0 nmol/mg protein, the “Aortic C20:4” value was 12.7 nmol/mg protein and the “Aortic CE-O(O)H” value is recorded as 14.1 pmol/mg protein. Besides, in experiment [1] (Bisphenol [low]), the “Aortic CE-O(O)H/LH” value stood at 0.145 ratio ×10^3, the “Aortic α-TOH” value is 669 pmol/mg protein and the “Aortic α-TQ” value worked out at 4.9 pmol/mg protein. Further, the “Aortic Ascorbate” value in experiment [1] (Bisphenol [low] (plasma 106±40 μM)) came to 3204 pmol/mg protein. Besides, the “level of aortic oxidised lipids lower than control” value in experiment [1] (animals with high plasma levels of bisphenol) came to 1000 fold. In experiment [1] (animals with low plasma levels of bisphenol), the “level of aortic oxidised lipids lower than control” value came to 10 fold.
`CC(C)(Sc1cc(C(C)(C)C)c(O)c(C(C)(C)C)c1)Sc1cc(C(C)(C)C)c(O)c(C(C)(C)C)c1` [Probucol, probucol]: in experiment [2] (HDL fraction, 1% probucol), the “HDL -TOH” value was found to be 1.4, the “HDL C” value was 0.12, the “HDL C18:2” value amounted to 531 and the “HDL C20:4” value amounted to 24.0. For the same molecule, in experiment [2] (HDL fraction, 1% probucol), the “HDL Total CoQ” value was determined as 0.1. In experiment [2] (LDL fraction, 1% probucol), the “LDL -TOH” value came out at 7.8, the “LDL C” value worked out at 0.96, the “LDL C18:2” value is on record as 388 and the “LDL C20:4” value is reported as 50.4. Moreover, the “LDL Total CoQ” value in experiment [2] (LDL fraction, 1% probucol) came to 0.4. Further, in experiment [2] (VLDL fraction, 1% probucol), the “VLDL -TOH” value worked out at 0.56, the “VLDL C18:2” value amounted to 340, the “VLDL C20:4” value was 17.5 and the “VLDL Total CoQ” value is on record as 0.1. Moreover, the “VLDL C” value in experiment [2] (VLDL fraction, pooled plasma, 1% w/w probucol) stood at 0.65. For the same molecule, the “content of C in VLDL, % of the control value” in experiment [2] (VLDL of pooled plasma, 1% probucol) amounted to 25%. For the same molecule, in experiment [3], the “content of plasma and aortic lipids and absolute amounts of oxidized lipids” value is on record as “significantly decreased”; the “proportion of aortic lipids that was oxidized” value is recorded as “not affected”. In addition, the “effect on atherosclerosis” value in experiment [3] (aortic denudation at week 3) is “significantly decreased”.

These data come from patent publication US20020115728A1, “Compositions and methods for treating cardiovascular disorders” (priority 2000, published 2002).
